Legend:
[1] = target: T1, CaV1.2 channel (Rattus norvegicus, UniProt P22002); assay: Whole-cell patch-clamp, Ba2+ current through CaV1.2 channels (IBa1.2) in rat tail artery myocytes; format: cell-based; conditions: for Emax: read-out: Emax (percent maximal inhibition), IBa1.2; for IC50: read-out: IC50, IBa1.2 inhibition
T1 construct: smooth muscle cells were freshly isolated; endogenous in cells; host or cells: freshly isolated rat tail main artery smooth muscle cells
Description: The tail main artery was dissected free of its connective tissue, and smooth muscle cells were freshly isolated under the following conditions. […] Cells stored in 0.05 mM Ca^2+ external solution containing 20 mM taurine and 0.5 mg/mL BSA at 4 °C under normal air were used for experiments within two days after isolation.
An Axopatch 200B patch-clamp amplifier (Molecular Devices Corporation, Sunnyvale, CA, USA) was used to generate and apply voltage pulses to the clamped cells and record the corresponding membrane currents. Recording electrodes were pulled from borosilicate glass capillaries (WPI, Berlin, Germany) and fire-polished to obtain a pipette resistance of 2–4 MΩ, when filled with an internal solution. At the beginning of each experiment, the junction potential between the pipette and bath solution was electronically adjusted to zero. […] Electrophysiological responses were tested at room temperature (20–22 °C).
The conventional whole-cell patch-clamp method was employed to voltage-clamp smooth muscle cells. The internal solution consisted of (in mM) 100 CsCl, 10 HEPES, 11 EGTA, 2 MgCl2, 1 CaCl2 (pCa 8.4), 5 Na pyruvate, 5 succinic acid, 5 oxaloacetic acid, 3 Na2ATP, and 5 phosphocreatine; pH was adjusted to 7.4 with CsOH. IBa1.2 was recorded in an external solution containing 30 mM TEA and 5 mM Ba^2+. […] Data were collected once the current amplitude had been stabilized (usually 7–10 min after the whole-cell configuration had been obtained).

[2] = system: rat aorta rings; assay: KCl-induced contraction of rat aorta rings (electromechanical coupling)
Description: (§1) The abdominal aorta was gently cleaned of adipose and connective tissues and cut into 3-mm wide rings. These were mounted in organ baths between two parallel, L-shaped, stainless-steel hooks, with one fixed in place and the other connected to an isometric transducer. Rings were allowed to equilibrate for 60 min in modified Krebs-Henseleit solution (composition in mM: 118 NaCl, 4.75 KCl, 1.19 KH2PO4, 1.19 MgSO4, 25 NaHCO3, 11.5 glucose, 2.5 CaCl2, gassed with a 95% O2–5% CO2 gas mixture to create a pH of 7.4) under a passive tension of 1 g. During this equilibration period, the solution was changed every 15 min. Isometric tension was recorded using a digital PowerLab data acquisition system (PowerLab 8/30; ADInstruments). Ring viability was assessed by recording the response to 0.3 µM phenylephrine and 60 mM KCl. Where needed, the endothelium was removed by gently rubbing the lumen of the ring with a forceps tip. This procedure was validated by adding 10 µM acetylcholine at the plateau of phenylephrine-induced contraction; a relaxation greater than 70% or less than 10% denoted the presence or absence of functional endothelium, respectively.
(§2) Aorta rings were pre-contracted pharmaco-mechanically using 0.3 µM phenylephrine and electromechanically using 25–30 mM or 60 mM KCl. Once the contraction reached a plateau, the compound was added cumulatively into the organ bath. […] The response was calculated as the percentage of phenylephrine- or KCl-induced contraction (taken as 100%).

[3] = target: T1, CaV1.2 channel; assay: Voltage dependence of CaV1.2 channel steady-state activation and inactivation in rat tail artery myocytes; format: cell-based; conditions: for Slope inact (slope factor of inactivation) / V50 inact (50% inactivation potential): Vh −80 mV
Text: An Axopatch 200B patch-clamp amplifier (Molecular Devices Corporation, Sunnyvale, CA, USA) was used to generate and apply voltage pulses to the clamped cells and record the corresponding membrane currents. Recording electrodes were pulled from borosilicate glass capillaries (WPI, Berlin, Germany) and fire-polished to obtain a pipette resistance of 2–4 MΩ, when filled with an internal solution. At the beginning of each experiment, the junction potential between the pipette and bath solution was electronically adjusted to zero. After compensation for whole-cell capacitance and series resistance (between 70% and 75%), current signals were low-pass filtered at 1 kHz and digitized at 3 kHz, before being stored on a computer hard disk. Electrophysiological responses were tested at room temperature (20–22 °C).
Cells were continuously superfused with an external solution containing 0.1 mM Ca^2+ and 30 mM TEA using a peristaltic pump (LKB 2132, Bromma, Sweden) at a flow rate of 400 µL/min. The conventional whole-cell patch-clamp method was employed to voltage-clamp smooth muscle cells. The internal solution consisted of (in mM) 100 CsCl, 10 HEPES, 11 EGTA, 2 MgCl2, 1 CaCl2 (pCa 8.4), 5 Na pyruvate, 5 succinic acid, 5 oxaloacetic acid, 3 Na2ATP, and 5 phosphocreatine; pH was adjusted to 7.4 with CsOH. IBa1.2 was recorded in an external solution containing 30 mM TEA and 5 mM Ba^2+. The current was elicited with 250-ms clamp pulses (0.067 Hz) to 10 mV, from a Vh of −50 mV. Data were collected once the current amplitude had been stabilized (usually 7–10 min after the whole-cell configuration had been obtained).
Steady-state activation curves were derived from the current–voltage relationships. Conductance (G) was calculated from the equation G = IBa1.2/(Em − Erev), where: IBa1.2 is the peak current elicited by depolarizing test pulses between −50 mV and 40 mV from a Vh of −50 mV; Em is the membrane potential; and Erev is the reversal potential (estimated from the extrapolated current-voltage curves in Figure 2). Gmax is the maximal Ba^2+ conductance (calculated at potentials ≤40 mV). The G/Gmax ratio was plotted against the membrane potential and fitted to the Boltzmann equation [40]. Steady-state inactivation curves were obtained using a double-pulse protocol. Once various levels of the conditioning potential had been applied for 5 s, followed by a short (5-ms) return to the Vh of −80 mV, a test pulse (250 ms) to 10 mV was delivered to evoke the current. The delay between the conditioning potential and the test pulse allowed the full or near-complete deactivation of the channels, simultaneously avoiding partial recovery from inactivation. K^+ currents were blocked with 30 mM TEA in the external solution and Cs^+ in the internal solution. […] The osmolarity of the 30 mM TEA- and 5 mM Ba^2+-containing external solution (320 mosmol, adjusted with NaCl if required) and that of the internal solution (290 mosmol) were measured with an osmometer (Osmostat OM 6020, Menarini Diagnostics, Florence, Italy).

[4] = system: rat aorta rings; assay: Phenylephrine-induced contraction of rat aorta rings (pharmaco-mechanical coupling); conditions: for Emax: Rattus norvegicus; for Emax / IC50: 0.3 µM phenylephrine
Description: as §1, §2

[5] = endothelium-denuded rat aorta rings pre-contracted by 60 mM KCl, read-out: Emax (percent maximal inhibition), KCl 60 mM-induced contraction
[6] = endothelium-denuded rat aorta rings pre-contracted by 60 mM KCl, read-out: IC50, KCl 60 mM-induced contraction
[7] = endothelium-denuded rat aorta rings, read-out: Emax (percent maximal inhibition), phenylephrine-induced contraction, −Endothelium
[8] = endothelium-intact rat aorta rings, read-out: Emax (percent maximal inhibition), phenylephrine-induced contraction, +Endothelium
[9] = endothelium-denuded rat aorta rings
[10] = endothelium-denuded rat aorta rings pre-contracted by 25 mM KCl, read-out: Emax (percent maximal inhibition), KCl 25 mM-induced contraction
[11] = endothelium-denuded rat aorta rings pre-contracted by 25 mM KCl, read-out: IC50, KCl 25 mM-induced contraction

T1 sequence (P22002 whole entry): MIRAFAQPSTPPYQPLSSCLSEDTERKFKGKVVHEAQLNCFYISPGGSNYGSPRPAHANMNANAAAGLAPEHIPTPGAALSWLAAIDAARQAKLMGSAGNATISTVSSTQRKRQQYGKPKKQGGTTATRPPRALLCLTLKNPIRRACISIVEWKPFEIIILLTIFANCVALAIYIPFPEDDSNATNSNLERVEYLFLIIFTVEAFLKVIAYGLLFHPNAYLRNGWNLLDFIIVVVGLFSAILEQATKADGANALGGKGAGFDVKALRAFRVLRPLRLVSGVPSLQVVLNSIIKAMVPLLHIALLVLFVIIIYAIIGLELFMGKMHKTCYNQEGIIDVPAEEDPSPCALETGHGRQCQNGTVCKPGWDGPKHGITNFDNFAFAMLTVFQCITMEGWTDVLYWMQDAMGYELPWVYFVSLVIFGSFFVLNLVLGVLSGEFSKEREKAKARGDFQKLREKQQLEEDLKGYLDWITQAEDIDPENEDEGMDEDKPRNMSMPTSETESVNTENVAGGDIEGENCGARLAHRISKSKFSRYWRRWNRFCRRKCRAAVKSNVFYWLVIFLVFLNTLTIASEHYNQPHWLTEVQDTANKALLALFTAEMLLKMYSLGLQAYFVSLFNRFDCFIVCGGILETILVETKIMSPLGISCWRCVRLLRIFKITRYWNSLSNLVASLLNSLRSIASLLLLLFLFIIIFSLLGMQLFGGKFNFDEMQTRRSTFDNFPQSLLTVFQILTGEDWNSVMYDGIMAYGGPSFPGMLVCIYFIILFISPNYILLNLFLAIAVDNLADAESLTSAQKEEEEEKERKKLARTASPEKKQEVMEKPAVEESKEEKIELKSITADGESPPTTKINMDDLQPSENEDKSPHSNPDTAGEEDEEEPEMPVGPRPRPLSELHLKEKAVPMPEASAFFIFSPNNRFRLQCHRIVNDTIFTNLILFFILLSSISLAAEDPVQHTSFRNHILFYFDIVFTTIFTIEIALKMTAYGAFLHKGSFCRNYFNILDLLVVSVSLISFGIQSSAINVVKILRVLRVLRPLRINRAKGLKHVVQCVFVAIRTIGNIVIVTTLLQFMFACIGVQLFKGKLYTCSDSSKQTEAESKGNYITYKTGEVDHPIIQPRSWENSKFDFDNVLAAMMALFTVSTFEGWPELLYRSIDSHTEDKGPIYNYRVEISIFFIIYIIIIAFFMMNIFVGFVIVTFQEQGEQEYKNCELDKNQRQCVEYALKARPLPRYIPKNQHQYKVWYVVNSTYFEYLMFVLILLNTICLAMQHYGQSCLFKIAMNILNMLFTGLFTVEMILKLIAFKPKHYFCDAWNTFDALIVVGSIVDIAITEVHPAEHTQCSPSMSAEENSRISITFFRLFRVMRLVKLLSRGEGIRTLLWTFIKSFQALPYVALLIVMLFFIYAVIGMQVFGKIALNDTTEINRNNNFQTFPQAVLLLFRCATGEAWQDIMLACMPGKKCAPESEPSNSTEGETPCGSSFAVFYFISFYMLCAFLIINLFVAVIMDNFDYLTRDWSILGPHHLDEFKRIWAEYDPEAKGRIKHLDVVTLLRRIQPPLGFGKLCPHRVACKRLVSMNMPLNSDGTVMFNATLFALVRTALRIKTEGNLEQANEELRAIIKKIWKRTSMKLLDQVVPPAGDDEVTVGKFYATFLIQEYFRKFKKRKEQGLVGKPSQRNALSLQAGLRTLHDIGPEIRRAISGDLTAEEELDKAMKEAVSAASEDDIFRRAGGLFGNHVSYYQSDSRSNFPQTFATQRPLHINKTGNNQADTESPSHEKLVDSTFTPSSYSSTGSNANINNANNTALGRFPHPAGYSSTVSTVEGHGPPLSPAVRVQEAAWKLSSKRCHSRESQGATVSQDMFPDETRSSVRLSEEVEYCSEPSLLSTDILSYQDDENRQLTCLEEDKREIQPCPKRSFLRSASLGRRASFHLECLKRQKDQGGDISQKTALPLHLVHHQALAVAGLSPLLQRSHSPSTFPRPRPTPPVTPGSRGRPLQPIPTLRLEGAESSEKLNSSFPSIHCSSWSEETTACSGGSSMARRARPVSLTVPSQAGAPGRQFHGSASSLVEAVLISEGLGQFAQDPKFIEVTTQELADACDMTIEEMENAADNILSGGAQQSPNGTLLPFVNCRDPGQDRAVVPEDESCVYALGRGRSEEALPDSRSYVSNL
T1 sequence (P54290 25-944 partner limits assumed): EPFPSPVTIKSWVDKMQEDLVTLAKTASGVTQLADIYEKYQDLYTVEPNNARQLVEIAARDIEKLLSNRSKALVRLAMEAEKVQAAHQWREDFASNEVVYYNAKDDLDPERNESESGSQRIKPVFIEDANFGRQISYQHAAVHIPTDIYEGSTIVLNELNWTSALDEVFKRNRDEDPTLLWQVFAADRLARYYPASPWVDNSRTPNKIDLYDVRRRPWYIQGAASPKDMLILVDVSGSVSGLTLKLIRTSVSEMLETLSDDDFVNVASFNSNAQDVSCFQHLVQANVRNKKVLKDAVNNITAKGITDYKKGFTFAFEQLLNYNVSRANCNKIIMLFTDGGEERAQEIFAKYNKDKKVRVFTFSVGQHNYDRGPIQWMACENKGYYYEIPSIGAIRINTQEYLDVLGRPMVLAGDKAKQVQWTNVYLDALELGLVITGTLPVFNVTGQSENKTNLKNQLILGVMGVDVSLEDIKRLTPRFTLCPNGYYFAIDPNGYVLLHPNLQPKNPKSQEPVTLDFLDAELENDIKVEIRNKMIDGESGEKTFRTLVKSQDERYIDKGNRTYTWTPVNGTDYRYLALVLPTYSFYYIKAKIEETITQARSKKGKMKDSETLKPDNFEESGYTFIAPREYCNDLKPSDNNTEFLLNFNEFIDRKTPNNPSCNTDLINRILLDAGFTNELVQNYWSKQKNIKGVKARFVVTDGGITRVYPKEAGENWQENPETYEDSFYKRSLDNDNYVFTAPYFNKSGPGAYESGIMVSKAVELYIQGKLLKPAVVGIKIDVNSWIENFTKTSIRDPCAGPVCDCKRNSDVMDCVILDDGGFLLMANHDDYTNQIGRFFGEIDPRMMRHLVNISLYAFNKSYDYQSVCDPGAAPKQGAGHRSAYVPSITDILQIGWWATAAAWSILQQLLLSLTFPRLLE
T1 sequence (P54290 945-1091 partner limits assumed): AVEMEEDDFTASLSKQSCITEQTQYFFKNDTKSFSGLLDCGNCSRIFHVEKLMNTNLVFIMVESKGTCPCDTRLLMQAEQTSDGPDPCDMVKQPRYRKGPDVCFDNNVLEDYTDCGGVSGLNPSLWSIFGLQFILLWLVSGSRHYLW
T1 sequence (P54287 whole entry partner): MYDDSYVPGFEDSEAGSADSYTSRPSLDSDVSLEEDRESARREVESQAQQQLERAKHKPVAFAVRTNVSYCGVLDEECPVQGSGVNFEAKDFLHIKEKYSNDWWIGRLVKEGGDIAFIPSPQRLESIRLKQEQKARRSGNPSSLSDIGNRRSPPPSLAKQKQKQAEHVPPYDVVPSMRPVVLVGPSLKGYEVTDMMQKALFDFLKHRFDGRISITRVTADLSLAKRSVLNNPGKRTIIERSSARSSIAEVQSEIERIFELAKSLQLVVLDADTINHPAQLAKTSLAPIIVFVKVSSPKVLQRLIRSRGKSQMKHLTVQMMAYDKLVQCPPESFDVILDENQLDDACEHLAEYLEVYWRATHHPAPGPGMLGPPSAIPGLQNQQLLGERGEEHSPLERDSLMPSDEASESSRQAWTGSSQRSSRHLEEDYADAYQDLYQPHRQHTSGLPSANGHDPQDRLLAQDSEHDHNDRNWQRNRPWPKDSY

| IC50 [2, 6] | IC50 [4, 9] | IC50 [2, 11] | Compound | Emax ([1]; pulses to 10 mV from Vh −50 mV) | IC50 ([1]; pulses to 10 mV from Vh −50 mV) | Emax [2, 5] | Slope act (slope factor of activation) ([3]; 10 µM compound) | V50 act (50% activation potential) ([3]; 10 µM compound) | Slope inact (slope factor of inactivation) ([3]; 10 µM compound) | V50 inact (50% inactivation potential) ([3]; 10 µM compound) | Emax [4, 7] | Emax [4, 8] | Emax [2, 10] | IBa1.2, % of the control ([1]; 100 nM, n = 5) | Slope act (slope factor of activation) ([3]; 30 µM compound) | V50 act (50% activation potential) ([3]; 30 µM compound) | Effect on phenylephrine-induced tone in words ([4]; endothelium-intact rat aorta rings) | Emax (percent maximal inhibition), IBa1.2 ([1]; pulses to 10 mV from Vh −50 mV) | Emax (percent maximal inhibition), KCl 60 mM-induced contraction ([2]; endothelium-denuded rat aorta rings pre-contracted by 60 mM KCl) |
| --- | --- | --- | --- | --- | --- | --- | --- | --- | --- | --- | --- | --- | --- | --- | --- | --- | --- | --- | --- |
| ~69.2 µM | – | – | CC1(C)CCC[C@]2(C)[C@@H](CCOCc3cccc(Cl)c3)[C@](C)(O)CC[C@@H]12 [Compound 10] | 86.4 ± 4.9% | 20.8 ± 6.1 µM | 53.1 ± 13.4% | – | – | – | – | – | – | – | – | – | – | – | – | – |
| 4.5 ± 0.5 µM | ~55 µM | 0.9 ± 0.2 µM | CC1(C)CCC[C@]2(C)[C@@H](CC(=O)NCCc3cccc(F)c3)[C@](C)(O)CC[C@@H]12 [Compound 9] | 97.8 ± 0.8% | 15.3 ± 5.3 µM | 92.4 ± 1.3% | 6.79 ± 0.35 | −2.37 ± 0.95 mV | −10.25 ± 1.33 | −36.46 ± 2.73 mV | ≤ 60% | 19.4 ± 23.2% | 92.3 ± 0.6% | – | – | – | – | – | – |
| – | – | – | COC(=O)C1=C(C)NC(C)=C([N+](=O)[O-])[C@H]1c1ccccc1C(F)(F)F [Bay K 8644, (S)-(-)-Bay K 8644, reference compound] | – | – | – | – | – | – | – | – | – | – | 447 ± 28% | – | – | – | – | – |
| 6.1 ± 1.6 µM | ~44.7 µM | 2.1 ± 0.9 µM | CC1(C)CCC[C@]2(C)[C@@H](CC(=O)NCc3ccco3)[C@](C)(O)CC[C@@H]12 [Compound 8] | 92.4 ± 2.2% | 16.7 ± 3 µM | 87.3 ± 4.9% | – | – | −11.51 ± 1.90 | −30.97 ± 3.49 mV | ≤ 60% | 15.2 ± 7.9% | 85.8 ± 4.8% | – | 7.61 ± 0.66 | 0.03 ± 1.35 mV | – | – | – |
| 29.2 ± 6.1 µM | – | – | CC1(C)CCCC2(C)C1CCC1(C)OC(=O)CC12 (single isomer, unassigned; (+)) [Compound 5, (+)-sclareolide, reference compound] | 64.8 ± 6.1% | ~69 µM | 73.5 ± 6.8% | – | – | – | – | – | – | 45.9 ± 8.5% | – | – | – | dramatic concentration-dependent increase of phenylephrine-induced tone | – | – |
| 11.9 ± 1.3 µM | – | – | sclareol [Compound 6] | – | 33.2 ± 6.8 µM | – | – | – | – | – | – | – | – | – | – | – | – | 88.7 ± 4.0 (5) % | 98.8 ± 1.3 (5) % |

From article PMC9410420, “Novel Labdane Diterpenes-Based Synthetic Derivatives: Identification of a Bifunctional Vasodilator That Inhibits CaV1.2 and Stimulates KCa1.1 Channels” (Marine Drugs, 2022)
